Measured values reported in patent US8993260B2, “Fluorescence-based viability staining method using a membrane permeable flourescent dye and membrane impermeable fluorescence quencher” (Charles River Laboratories, Inc., priority 2012, dated 2015).

Tests used:
[1] = test system: viable and heat killed E. coli; assay: Viability staining of E. coli captured on a membrane: fluorescent probe and quencher wash, fluorescence microscopy; format: cell-based; conditions: 0.005 mM Oxazine 170 perchlorate stain, then 10 mM sodium ascorbate wash
Experimental: Viable and non-viable E. coli cell fractions were prepared by picking a colony cultured on a conventional media plate and then transferring the cells into Phosphate Buffered Saline (PBS). The cells then were suspended by vortexing and then were further diluted in PBS to give a turbidity equivalent to a 1.0 McFarland standard. This stock solution served as the live cell fraction. An aliquot of the live cell fraction was transferred to a glass tube that was placed into a boiling water bath for about 15 minutes to heat kill the E. coli. The tube was removed from the bath and allowed to cool to room temperature. This heat killed suspension served as the dead cell fraction. A fluorescent stain solution was prepared as a 0.005 mM solution of Oxazine 170 perchlorate (Sigma-Aldrich, St. Louis, Mo.) in PBS containing a 1:100,000 dilution of 10% w/v 0.8 μm Sky Blue latex fluorescent particles (Spherotech, Lake Forest, Ill.). A separate quencher wash solution was prepared as a 10 mM Sodium ascorbate (Sigma-Aldrich, St. Louis, Mo.) solution in PBS. […] The cells then were imaged using a fluorescent microscope (Carl Zeiss, LLC—Thornwood, N.Y.) with an excitation of 575 nm-625 nm and measured emission of 660 nm-710 nm. […]

[2] = test system: viable and non-viable E. coli; assay: Viability staining of mixed viable/non-viable E. coli in solution: fluorescent probe and two PET quenchers; format: cell-based; conditions: 0.005 mM Oxazine 170 perchlorate, 0.4 mM p-Sulfonic calix[6]arene, 100 mM sodium ascorbate in PBS; about 5 min
Experimental: The viable and heat killed E. coli were preparations were prepared as described in Example 1. The heat killed E. coli suspension was then combined with the viable cell suspension and mixed by vortexing. The resulting cell suspension served as the viable and non-viable E. coli solution. A fluorescent probe-quencher stain was prepared as a solution consisting of 0.005 mM Oxazine 170 perchlorate (Sigma-Aldrich, St. Louis, Mo.), 0.4 mM p-Sulfonic calix[6]arene (TCI America, Portland, Oreg.), 100 mM Sodium ascorbate (Sigma-Aldrich, St. Louis, Mo.) in PBS. The viable and non-viable E. coli suspension was then diluted 1:1000 into the fluorescent probe-quencher solution to stain the cells. After incubation for approximately 5 minutes, a droplet of the stained cell solution was placed onto a microscope slide and imaged on a fluorescent microscope (Carl Zeiss, LLC, Thornwood, N.Y.). FIGS. 20A and 20B show a combined image of the viable and non-viable stained E. coli captured under phase contrast (FIG. 20A) as well as fluorescent conditions (excitation 575-625 nm, emission 660-710 nm) (FIG. 20B). The viable and non-viable cells were indistinguishable in phase contrast but under fluorescent conditions the viable cells were brightly fluorescent whereas the non viable cells were not.

SMILES | Permeation of the quencher into heat killed cells (quenching of fluorescent signal) ([1]; heat killed E. coli on 0.2 μm membrane) | Permeation of the quencher into viable cells ([1]; live E. coli on 0.2 μm membrane, ex 575-625 nm, em 660-710 nm) | Permeation of the quencher through non-viable cell membranes and quenching of fluorescence [2]
O=C1O[C@H]([C@@H](O)CO)C([O-])=C1O.[Na+] [sodium ascorbate, Sodium Ascorbate] | permeated | excluded from the viable cells | permeated the non-viable cell membranes resulting in an effective quenching of fluorescence
O=S(=O)(O)c1cc2c(O)c(c1)Cc1cc(S(=O)(=O)O)cc(c1O)Cc1cc(S(=O)(=O)O)cc(c1O)Cc1cc(S(=O)(=O)O)cc(c1O)Cc1cc(S(=O)(=O)O)cc(c1O)Cc1cc(S(=O)(=O)O)cc(c1O)C2 [p-Sulfonic calix[6]arene, 4- Sulfocalix [6]arene] | – | – | permeated the non-viable cell membranes resulting in an effective quenching of fluorescence
